Patent US20180110711A1, “METHOD OF ENHANCING HAIR GROWTH” (Allergan, Inc., priority 2011, published 2018)

What was measured:
[1] = test system: mouse model of hair growth; test: Mouse model of hair growth, Study 10-06 (Test Two); assay type: in vivo
Description: FIGS. 6 through 8 show the results of a separate testing (Test Two) of synergistic composition of the invention in the same mouse model of hair growth, with FIG. 6 being the Vehicle, FIG. 7 being 0.03% Bimatoprost, alone, and FIG. 8 being the synergistic composition, i.e. 0.03% Bimatoprost and 5% Rogaine (minoxidil).

[2] = test system: mouse model for hair growth; test: Mouse model for hair growth, Study 10-04 (Test One); assay type: in vivo; conditions: compared with vehicle or single agents
Description: A comparison of topical compositions comprising bimatoprost or minoxidil, alone, and the combination of bimatoprost and minoxidil, in a single composition, with the vehicle, for onset of hair growth and full hair growth, in a mouse model for hair growth, gave the results summarized in Table 1, below, and FIG. 5.

| SMILES | full hair growth (in words, comparison) ([1]; compared with vehicle) | onset of hair growth (in words, comparison) ([1]; compared with vehicle or bimatoprost alone) | full hair growth (in words, comparison) [2] | onset of hair growth (in words, comparison) [2] |
| --- | --- | --- | --- | --- |
| CCNC(=O)CCC/C=C\C[C@@H]1[C@@H](/C=C/[C@@H](O)CCc2ccccc2)[C@H](O)C[C@@H]1O [BIMATOPROST 0.03%, cyclopentane N-ethyl heptanamide-5-cis-2-(3α-hydroxy-5-phenyl-1-trans-pentenyl)-3,5-dihydroxy, [1α,2α,3α,5α]] | did not obtain the result of full hair growth faster then the vehicle | faster onset of hair growth | did not obtain the result of full hair growth faster then the vehicle | faster onset of hair growth |
| Nc1cc(N2CCCCC2)nc(N)[n+]1[O-] [MINOXIDIL 5%, minoxidil] | – | – | did not obtain the result of full hair growth faster then the vehicle | faster onset of hair growth |
